Molecular target: p38α kinase (Homo sapiens, UniProt Q16539)
Assay: p38α Flash Plate Assay (p38 kinase inhibition)
Type: biochemical
Conditions: in vitro; 150 μM ATP, 0.05 mM biotinylated peptide substrate, 5 nM enzyme, 60 minute incubation at 30° Celsius; read-out: P38 α-FLASHPLATE IC50
Procedure: Assay for p38 Kinase Inhibition—p38α Flash Plate Assay
The compounds to be tested were solubilized in DMSO and diluted with water to the desired concentrations. The p38 kinase was diluted to 20 nM into a buffer containing 20 mM MOPS, pH 7.0, 25 mM beta-glycerol phosphate, 2 mg/ml gelatin, 0.5 mM EGTA (ethylene-bis-(oxyethylenenitrilo)-tetraacetic acid), and 4 mM dithiothreitol (DTT).
The reaction was carried out by mixing 20 μl test compound with 10 μl of a substrate cocktail containing 0.2 mM biotinylated peptide substrate and 0.6 mM ATP (+100 μCi/ml gamma-^33P-ATP) in a 5× assay buffer. The reaction was initiated by the addition of 10 μl of p38 kinase. Final assay conditions were 25 mM MOPS, pH 7.0, 26.25 mM beta-glycerol phosphate, 80 mM KCl, 22 mM MgCl2, 3 mM MgSO4, 1 mg/ml gelatin, 0.625 mM EGTA, 1 mM DTT, 0.05 mM peptide substrate, 150 μM ATP, and 5 nM enzyme. After a 60 minute incubation at 30° Celsius, the reaction was stopped by the addition of 10 μl per reaction of 0.25 M phosphoric acid.
A portion of the reaction was transferred to a streptavidin-coated Flash Plate (Perkin Elmer); the Flash Plate was incubated for 60 minutes at 30° Celsius and then washed 3× with PBS containing 0.01% Tween-20.
Counts incorporated are determined on a scintillation counter. Relative enzyme activity was calculated by subtracting background counts (counts measured in the absence of enzyme) from each result, and comparing the resulting counts to those obtained in the absence of inhibitor. IC50 values were determined with curve-fitting plots available with common software packages. The IC50 was expressed as the concentration of compound which inhibited the enzyme activity by 50%.

Sequence of p38α kinase (Q16539 whole entry): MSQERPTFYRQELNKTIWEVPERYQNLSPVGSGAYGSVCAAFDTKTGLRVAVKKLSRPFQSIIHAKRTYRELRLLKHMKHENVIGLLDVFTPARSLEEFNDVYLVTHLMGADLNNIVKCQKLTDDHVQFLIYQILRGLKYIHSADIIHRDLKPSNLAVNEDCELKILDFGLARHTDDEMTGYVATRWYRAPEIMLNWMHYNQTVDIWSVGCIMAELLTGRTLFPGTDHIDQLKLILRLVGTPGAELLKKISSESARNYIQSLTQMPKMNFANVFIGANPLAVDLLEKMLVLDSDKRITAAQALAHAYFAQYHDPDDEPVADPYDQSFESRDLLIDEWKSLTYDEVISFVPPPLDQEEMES

- IC50: 0.01 µM
Compound: COc1nc2[nH]cc(C(=O)C(=O)N3CC[C@@H](O)C3)c2cc1C(=O)N1C[C@H](C)N(Cc2ccc(F)cc2)C[C@H]1C [compound 21]

From patent US20050288299A1, “Azaindole derivatives as inhibitors of p38 kinase” (priority 2002, published 2005)
